In patent US12077503B2, “Substituted cyclic amides and their use as herbicides” (FMC CORPORATION, priority 2015, dated 2024):

Key:
Assay type in all cases: in vivo
Kochia (Kochia scoparia) [1] = test: Test A preemergence; conditions: Preemergence; for Plant response rating, Kochia: 125 g ai/ha, visual injury after approximately 10 d, 0 to 100 scale where 0 is no effect and 100 is complete control; for Kochia plant response rating (0 to 100 scale, 0 is no effect, 100 is complete control): 500 g ai/ha, visual injury approx. 10 d
Procedure, shortened: (§1)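 Greenhouse, ~10 d after spray; visual injury vs untreated controls, 0 = no effect, 100 = complete control. Preemergence: directed soil spray over planted seeds. Postemergence: plants 2–10 cm, 1–2 leaf stage. Loam/sand blend. Compound in non-phytotoxic solvent with surfactant.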

[2] = system: barnyardgrass (Echinochloa crus-galli); test: Test A preemergence; conditions: Preemergence; for Plant response rating, Barnyardgrass: 125 g ai/ha, visual injury after approximately 10 d, 0 to 100 scale where 0 is no effect and 100 is complete control; for Barnyardgrass plant response rating (0 to 100 scale, 0 is no effect, 100 is complete control): 500 g ai/ha, visual injury approx. 10 d
Procedure, shortened: as §1

[3] = system: giant foxtail (Setaria faberii); test: Test A preemergence; conditions: Preemergence; for Plant response rating, Foxtail, Giant: 125 g ai/ha, visual injury after approximately 10 d, 0 to 100 scale where 0 is no effect and 100 is complete control; for Foxtail, Giant plant response rating (0 to 100 scale, 0 is no effect, 100 is complete control): 500 g ai/ha, visual injury approx. 10 d
Procedure, shortened: as §1

[4] = system: pigweed (Amaranthus retroflexus); test: Test A preemergence; conditions: Preemergence; for Plant response rating, Pigweed: 125 g ai/ha, visual injury after approximately 10 d, 0 to 100 scale where 0 is no effect and 100 is complete control
[5] = system: ragweed (common ragweed, Ambrosia elatior); test: Test A preemergence; conditions: Preemergence; for Plant response rating, Ragweed: 125 g ai/ha, visual injury after approximately 10 d, 0 to 100 scale where 0 is no effect and 100 is complete control; for Ragweed plant response rating (0 to 100 scale, 0 is no effect, 100 is complete control): 500 g ai/ha, visual injury approx. 10 d
Procedure, shortened: as §1

[6] = system: ryegrass, Italian (Italian ryegrass, Lolium multiflorum); test: Test A preemergence; conditions: Preemergence; for Plant response rating, Ryegrass, Italian: 125 g ai/ha, visual injury after approximately 10 d, 0 to 100 scale where 0 is no effect and 100 is complete control; for Ryegrass, Italian plant response rating (0 to 100 scale, 0 is no effect, 100 is complete control): 500 g ai/ha, visual injury approx. 10 d
Procedure, shortened: as §1

[7] = system: Galium (catchweed bedstraw, Galium aparine); test: Test A postemergence
Procedure, shortened: as §1

Kochia (Kochia scoparia) [8] = test: Test A postemergence
Procedure, shortened: as §1

[9] = system: barnyardgrass (Echinochloa crus-galli); test: Test A postemergence
Procedure, shortened: as §1

[10] = system: blackgrass (Alopecurus myosuroides); test: Test A postemergence
Procedure, shortened: as §1

corn (Zea mays) = test: Test A postemergence
Procedure, shortened: as §1

[11] = system: giant foxtail (Setaria faberii); test: Test A postemergence
Procedure, shortened: as §1

[12] = system: pigweed (Amaranthus retroflexus); test: Test A postemergence
Procedure, shortened: as §1

[13] = system: ragweed (common ragweed, Ambrosia elatior); test: Test A postemergence
Procedure, shortened: as §1

[14] = system: ryegrass, Italian (Italian ryegrass, Lolium multiflorum); test: Test A postemergence
Procedure, shortened: as §1

[15] = system: wheat (Triticum aestivum); test: Test A postemergence
Procedure, shortened: as §1

[16] = system: barnyardgrass (Echinochloa crus-galli); test: Test B flooded paddy test; conditions: Flood, 250 g ai/ha; 0 to 100 scale where 0 is no effect and 100 is complete control; 13 to 15 d
Procedure, shortened: (§2)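 Evaluation by eye, against controls, occurred 13–15 d post-treatment in a greenhouse, using a 0 (no effect) to 100 (complete control) scale. Application was into the paddy water, 3 cm deep over the soil, on 2-leaf plants.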

[17] = system: ducksalad (Heteranthera limosa); test: Test B flooded paddy test; conditions: Flood, 250 g ai/ha; 0 to 100 scale where 0 is no effect and 100 is complete control; 13 to 15 d
Procedure, shortened: as §2

rice (Oryra sativa) = test: Test B flooded paddy test; conditions: Flood, 250 g ai/ha; 0 to 100 scale where 0 is no effect and 100 is complete control; 13 to 15 d
Procedure, shortened: as §2

[18] = system: sedge, umbrella (small-flower umbrella sedge, Cyperus difformis); test: Test B flooded paddy test; conditions: Flood, 250 g ai/ha; 0 to 100 scale where 0 is no effect and 100 is complete control; 13 to 15 d
Procedure, shortened: as §2

[19] = 125 g ai/ha, postemergence, visual rating after approx. 10 d, 0 to 100 scale (0 no effect, 100 complete control)
[20] = Postemergence, 500 g ai/ha, 0 to 100 scale where 0 is no effect and 100 is complete control

Row | Structure (SMILES) | Plant response rating, Kochia (Kochia (Kochia scoparia) [1]) | Kochia plant response rating (0 to 100 scale, 0 is no effect, 100 is complete control) (Kochia (Kochia scoparia) [1]) | Plant response rating, Barnyardgrass [2] | Barnyardgrass plant response rating (0 to 100 scale, 0 is no effect, 100 is complete control) [2] | Plant response rating, Foxtail, Giant [3] | Foxtail, Giant plant response rating (0 to 100 scale, 0 is no effect, 100 is complete control) [3] | Plant response rating, Pigweed [4] | Plant response rating, Ragweed [5] | Ragweed plant response rating (0 to 100 scale, 0 is no effect, 100 is complete control) [5] | Plant response rating, Ryegrass, Italian [6] | Ryegrass, Italian plant response rating (0 to 100 scale, 0 is no effect, 100 is complete control) [6] | Plant response rating, Galium [7, 19] | Plant response rating, Galium [7, 20] | Plant response rating, Kochia (Kochia (Kochia scoparia) [8]; [19]) | Plant response rating, Kochia (Kochia (Kochia scoparia) [8]; [20]) | Plant response rating, Barnyardgrass [9, 19] | Plant response rating, Barnyardgrass [9, 20] | Plant response rating, Blackgrass [10, 19] | Plant response rating, Blackgrass [10, 20] | Plant response rating, Corn (corn (Zea mays); [19]) | other results
1 | O=C1NCC(c2cc(C(F)(F)F)cc(C(F)(F)F)c2)C1C(=O)Nc1ccccc1F (centres unmarked) [Compound 587] | 0 | 0 | 90 | 90 | 90 | 90 | 0 | 0 | 0 | 20 | 60 | 0 | 0 | 0 | 20 | 80 | 90 | 20 | 60 | 40 | Plant response rating, Corn (corn (Zea mays); [20]): 70; Plant response rating, Foxtail, Giant [11, 19]: 80; Plant response rating, Foxtail, Giant [11, 20]: 90; Plant response rating, Pigweed [12, 19]: 0; Plant response rating, Pigweed [12, 20]: 0; Plant response rating, Ragweed [13, 19]: 0; Plant response rating, Ragweed [13, 20]: 0; Plant response rating, Ryegrass, Italian [14, 19]: 0; Plant response rating, Ryegrass, Italian [14, 20]: 30; Plant response rating, Wheat [15, 19]: 40; Plant response rating, Wheat [15, 20]: 60; Plant response rating, Barnyardgrass [16]: 55; Plant response rating, Ducksalad [17]: 75; Plant response rating, Rice (rice (Oryra sativa)): 20; Plant response rating, Sedge, Umbrella [18]: 0
2 | O=C1NCC(c2cc(C(F)(F)F)cc(C(F)(F)F)c2)C1C(=O)Nc1cccc(F)c1F (centres unmarked) [Compound 588] | 0 | 0 | 90 | 90 | 90 | 90 | 0 | 0 | 0 | 80 | 50 | 0 | 30 | 0 | 70 | 80 | 80 | 20 | 50 | 0 | Pigweed plant response rating (0 to 100 scale, 0 is no effect, 100 is complete control) ([4]; 500 g ai/ha, visual injury approx. 10 d): 0; Plant response rating, Corn (corn (Zea mays); [20]): 70; Plant response rating, Foxtail, Giant [11, 19]: 80; Plant response rating, Foxtail, Giant [11, 20]: 80; Plant response rating, Pigweed [12, 19]: 20; Plant response rating, Pigweed [12, 20]: 40; Plant response rating, Ragweed [13, 19]: 0; Plant response rating, Ragweed [13, 20]: 50; Plant response rating, Ryegrass, Italian [14, 19]: 0; Plant response rating, Ryegrass, Italian [14, 20]: 50; Plant response rating, Wheat [15, 19]: 0; Plant response rating, Wheat [15, 20]: 40; Plant response rating, Barnyardgrass [16]: 30; Plant response rating, Ducksalad [17]: 70; Plant response rating, Rice (rice (Oryra sativa)): 30; Plant response rating, Sedge, Umbrella [18]: 0
